The values that follow come from patent publication US6589766B1, “Aldol consensations by catalytic antibodies” (The Scripps Research Institute, priority 1997, dated 2003).

Series [1] in a line: control aldol reactions using lysine or bovine serum albumin instead of the antibodies. The settings on record: used instead of the antibodies. The class given is biochemical. As for the experimental part: For ease of comparison we determined specific rates for these reactions under the following defined conditions: 1 M of donor, 500 mM of aldehyde 4 and 0.4 mol-% of antibody .

For series [2] the following is noted: cited from earlier work; for pKa of the amino group: free in aqueous solution / water.
In series [3] the test system is aldolase antibodies 38C2 and 33F12. Nature of the series: inhibition of antibody aldolase activity by β-diketones. The series is classed as biochemical. As for the experimental part:
For ease of comparison we determined specific rates for these reactions under the following defined conditions: 1 M of donor, 500 mM of aldehyde 4 and 0.4 mol-% of antibody . […] A large variety of other ketones were also studied with aldehyde 4 with monitoring of the consumption of 4 and appearance of a new peak tentatively assigned as the β-hydroxyketone product. The antibody catalyzed aldol reactions were inhibited by addition of equimolar amounts of the hapten 1 or 2,4-pentanedione. Further control experiments were carried out using lysine or bovine serum albumin instead of the antibodies. […] Further study of mixed solvent systems may allow conditions to be defined where substrates such as these are accepted by the catalyst. Of the ketones studied, reactions involving hydroxyacetone as the donor were the most efficient.
No background reaction for the overall conversion of cyclopentanone to 35 in the absence of antibody could be observed following extended incubation for 2 months.
The reaction of 3-methyl-2,4-pentanedione was monitored spectrophotometrically by following the absorption of the antibody-enamine complex 3 now at 335 nm. […] Study of the dependence of the rate of enamine formation on pH with 2,4-pentanedione yielded the same pKa.

The nature of series [4]: amine catalyzed retro-aldolization of 59 in aqueous buffer and n-octanol. The class given is biochemical. An excerpt: Therefore the second order rate constants for n-butylamine and aminoacetonitrile catalyzed retro-aldolization of 59 where determined in aqueous buffer and n-octanol. […] The pka's of n-butylamine and aminoacetonitrile in water are 10.61 and 5.34 (Hupe, D. J.; Kendall, M. C. R.; Spencer, T. A. J. Am. Chem. Soc. 1972, 94, 1254). […] Antibody 38C2 provides a 106-108 fold enhancement of the efficiency of the retro-aldol reaction of 59 as compared to the non-enzymic amine catalyzed reactions in either aqueous or organic media. […] The effectiveness of the active site amine of 38C2 is also indicated by effective molarities between 560 and 35,000 M depending on the amine and solvent system studied.
The activation energy for this reaction should be […] in nonpolar solvents such as the active site of the antibody and n-octanol since the reaction involves charge dispersal in the transition state. A polar medium would be expected to stabilize the cationic iminium intermediates to a greater extent than the activated complex. (Reichardt, C., in Solvents and Solvents Effects in Organic Chemistry Ebel, H. F., Wentrup-Byne, E., Eds.; New York, N.Y., 1990, 2nd eddition, pp1-511; Heathcock, C. H. Stereoselective Aldol Condensations, in E. Buncel and T. Durst (eds): Comprehensive Carbanion Chemistry. Part B, P. 177ff. (particularly p. 198), Elsevier, Amsterdam 1984).

For “bovine serum albumin: control protein used instead of the antibodies”, the “catalysis of the aldol reactions” value in series [1] was “No catalysis”. With `N#CCN` [aminoacetonitrile], in series [2], the “pKa of the amino group” value was 5.34. For `CC(=O)CC(C)=O` [2,4-pentanedione], the “inhibition of ab 38C2 catalyzed elimination” value in series [3] (elimination from 36 to 35) is reported as “inhibited”. Besides, the “inhibition of antibody catalyzed aldol reactions” value in series [3] (equimolar amounts) is listed as “inhibited”. In series [2], the “pKa of the protons at the 3 position” value is recorded as 8.87.

For the compound `NCCCC[C@H](N)C(=O)O` [lysine], in series [2], the “pKa of the amino group” value is “around 10.5”. The “catalysis of the aldol reactions” value in series [1] is reported as “No catalysis”. Take `CC(=O)C(C)C(C)=O` [3-methyl-2,4-pentanedione]: in series [3] (stoichiometric reaction forming stable vinylogous amides), the “inhibition of aldolase activity” value is “completely inhibiting aldolase activity”. For the same compound, the “pKa of the protons at the 3 position” value in series [2] is on record as 10.65. On to `CCCCN` [n-butylamine], for which the “catalysis in n-octanol compared to catalysis in aqueous solution” value in series [4] was 63 fold. Moreover, the “pKa of the amino group” value in series [2] is 10.61.
